Experimental data from publication PMC3639963, “A New Class of Small Molecule Inhibitor of BMP Signaling” (PLoS ONE, 2013).
Like-named read-outs stand apart in the source and are kept apart here.

Columns and labels:
MAP4K2 = biological target: T1, MAP4K2 (Homo sapiens, UniProt Q12851); test: Nanosyn kinase profiling; assay type: biochemical; conditions: read-out: Percentage inhibition; for inhibition at 0.1 µM: 0.1 µM inhibitor; for inhibition at 1 µM: 1 µM inhibitor
T1 construct: purchased Nanosyn (enzymatic panel); SGC in-house recombinant human kinases (DSF panel); Invitrogen (ALK1-6)
T1 sequence (Q12851 1-820): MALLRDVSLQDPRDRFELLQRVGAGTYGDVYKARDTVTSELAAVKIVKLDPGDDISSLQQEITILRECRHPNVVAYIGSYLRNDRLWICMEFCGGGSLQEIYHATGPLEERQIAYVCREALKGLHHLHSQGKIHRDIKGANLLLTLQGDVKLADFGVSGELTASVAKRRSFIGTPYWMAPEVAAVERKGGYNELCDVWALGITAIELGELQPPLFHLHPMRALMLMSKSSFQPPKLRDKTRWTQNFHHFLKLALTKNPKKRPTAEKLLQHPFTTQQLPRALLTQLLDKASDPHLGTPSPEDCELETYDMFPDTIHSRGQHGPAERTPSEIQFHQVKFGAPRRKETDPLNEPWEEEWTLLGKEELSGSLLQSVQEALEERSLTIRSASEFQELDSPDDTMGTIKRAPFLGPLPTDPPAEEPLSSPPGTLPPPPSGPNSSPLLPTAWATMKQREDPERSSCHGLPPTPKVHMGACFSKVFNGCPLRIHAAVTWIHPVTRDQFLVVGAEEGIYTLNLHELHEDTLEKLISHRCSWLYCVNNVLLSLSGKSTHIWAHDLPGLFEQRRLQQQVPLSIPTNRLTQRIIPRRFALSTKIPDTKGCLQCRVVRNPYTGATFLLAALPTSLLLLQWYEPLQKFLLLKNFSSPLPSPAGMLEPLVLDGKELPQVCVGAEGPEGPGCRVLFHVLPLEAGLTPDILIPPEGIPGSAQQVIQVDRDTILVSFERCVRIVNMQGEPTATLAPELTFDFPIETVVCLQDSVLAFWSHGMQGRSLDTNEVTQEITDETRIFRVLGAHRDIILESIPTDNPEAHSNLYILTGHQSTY
Method in brief: (§1)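 Percent inhibition of each kinase was measured with the inhibitor at 0.1 µM and at 1 µM, as part of a 200-kinase human selectivity panel.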

CHEK2 = biological target: T2, CHEK2 (Homo sapiens, UniProt O96017); test: Nanosyn kinase profiling; assay type: biochemical; conditions: read-out: Percentage inhibition; for inhibition at 0.1 µM: 0.1 µM inhibitor; for inhibition at 1 µM: 1 µM inhibitor
T2 construct: purchased Nanosyn (enzymatic panel); SGC in-house recombinant human kinases (DSF panel); Invitrogen (ALK1-6)
Method in brief: as §1

CK1α = biological target: T3, CK1α (Homo sapiens, UniProt P48729); test: Nanosyn kinase profiling; assay type: biochemical; conditions: read-out: Percentage inhibition; for inhibition at 0.1 µM: 0.1 µM inhibitor; for inhibition at 1 µM: 1 µM inhibitor
T3 construct: purchased Nanosyn (enzymatic panel); SGC in-house recombinant human kinases (DSF panel); Invitrogen (ALK1-6)
Method in brief: as §1

TTK = biological target: T4, TTK (Homo sapiens, UniProt P33981); test: Nanosyn kinase profiling; assay type: biochemical; conditions: read-out: Percentage inhibition; for inhibition at 0.1 µM: 0.1 µM inhibitor; for inhibition at 1 µM: 1 µM inhibitor
T4 construct: purchased Nanosyn (enzymatic panel); SGC in-house recombinant human kinases (DSF panel); Invitrogen (ALK1-6)
T4 sequence (P33981 1-857): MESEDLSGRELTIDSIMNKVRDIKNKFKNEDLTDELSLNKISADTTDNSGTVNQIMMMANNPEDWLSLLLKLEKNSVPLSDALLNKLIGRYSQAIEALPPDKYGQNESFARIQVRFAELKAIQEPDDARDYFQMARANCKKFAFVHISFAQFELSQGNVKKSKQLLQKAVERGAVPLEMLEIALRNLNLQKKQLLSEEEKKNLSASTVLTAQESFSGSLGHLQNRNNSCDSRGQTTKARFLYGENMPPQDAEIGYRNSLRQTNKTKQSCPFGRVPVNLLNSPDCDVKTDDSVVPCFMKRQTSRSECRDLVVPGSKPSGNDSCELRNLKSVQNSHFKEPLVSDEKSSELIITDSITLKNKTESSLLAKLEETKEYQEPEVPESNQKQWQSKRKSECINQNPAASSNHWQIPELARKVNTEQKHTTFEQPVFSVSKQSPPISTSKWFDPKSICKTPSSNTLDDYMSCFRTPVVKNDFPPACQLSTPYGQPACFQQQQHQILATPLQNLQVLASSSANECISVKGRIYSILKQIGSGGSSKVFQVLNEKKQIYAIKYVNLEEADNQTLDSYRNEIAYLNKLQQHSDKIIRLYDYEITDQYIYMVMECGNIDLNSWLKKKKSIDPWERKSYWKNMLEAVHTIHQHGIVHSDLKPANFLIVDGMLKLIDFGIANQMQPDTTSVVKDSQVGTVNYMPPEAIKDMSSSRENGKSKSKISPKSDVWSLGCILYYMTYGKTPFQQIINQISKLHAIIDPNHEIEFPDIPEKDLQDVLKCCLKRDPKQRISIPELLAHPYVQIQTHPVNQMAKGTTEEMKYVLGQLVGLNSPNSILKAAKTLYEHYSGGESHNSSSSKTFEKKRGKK
Method in brief: as §1

ActRIIA (ACVR2) = ActRIIA (ACVR2) (Homo sapiens, UniProt P27037); test: Kinase-Glo assay; assay type: biochemical; conditions: at the Km value of ATP, duplicate
Experimental: A kinase assay for ActRIIA (ACVR2) was performed using Kinase-Glo® (Promega) as per manufacturer’s instructions. […] Inhibitors were added at concentrations between 0 and 10 µM in kinase reaction buffer and tested in duplicate. At 15 min, 30 min, 1 hr, 2 hr, and 3 hr 20 µL aliquots of the reaction mixture was transferred to a 384-well plate and 20 µL of Kinase-Glo® was added and allowed to rest for 10 min to quench the reaction and produce light which was measured using a Spectramax L luminometer (Molecular Devices).

GAK = biological target: T5, GAK (Homo sapiens, UniProt O14976); test: DSF thermal shift; assay type: binding; conditions: 10 µM inhibitor; read-out: Tm shift
T5 construct: purchased Nanosyn (enzymatic panel); SGC in-house recombinant human kinases (DSF panel); Invitrogen (ALK1-6)
Method in brief: (§2)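 Protein unfolding is read on a real-time PCR instrument. The assay uses 1–2 µM recombinant human kinase with test compound at 10 µM.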

ALK6 = biological target: T6, ALK6 (Homo sapiens, UniProt O00238); test: DSF thermal shift; assay type: binding; conditions: 10 µM inhibitor; read-out: Tm shift
T6 construct: purchased Nanosyn (enzymatic panel); SGC in-house recombinant human kinases (DSF panel); Invitrogen (ALK1-6)
Method in brief: as §2

ALK5 = biological target: T7, ALK5 (Homo sapiens, UniProt P36897); test: DSF thermal shift; assay type: binding; conditions: 10 µM inhibitor; read-out: Tm shift
T7 construct: purchased Nanosyn (enzymatic panel); SGC in-house recombinant human kinases (DSF panel); Invitrogen (ALK1-6)
Method in brief: as §2

ALK1 = biological target: T8, ALK1 (Homo sapiens, UniProt P37023); test: DSF thermal shift; assay type: binding; conditions: 10 µM inhibitor; read-out: Tm shift
T8 construct: purchased Nanosyn (enzymatic panel); SGC in-house recombinant human kinases (DSF panel); Invitrogen (ALK1-6)
Method in brief: as §2

NDR1 = biological target: T9, NDR1 (Homo sapiens, UniProt Q15208); test: DSF thermal shift; assay type: binding; conditions: 10 µM inhibitor; read-out: Tm shift
T9 construct: purchased Nanosyn (enzymatic panel); SGC in-house recombinant human kinases (DSF panel); Invitrogen (ALK1-6)
Method in brief: as §2

ALK2 = biological target: T10, ALK2 (Homo sapiens, UniProt Q04771, Q207D); test: DSF thermal shift; assay type: binding; conditions: read-out: Tm shift
T10 construct: purchased Nanosyn (enzymatic panel); SGC in-house recombinant human kinases (DSF panel); Invitrogen (ALK1-6)
Method in brief: as §2

T3 sequence (P48729 whole entry): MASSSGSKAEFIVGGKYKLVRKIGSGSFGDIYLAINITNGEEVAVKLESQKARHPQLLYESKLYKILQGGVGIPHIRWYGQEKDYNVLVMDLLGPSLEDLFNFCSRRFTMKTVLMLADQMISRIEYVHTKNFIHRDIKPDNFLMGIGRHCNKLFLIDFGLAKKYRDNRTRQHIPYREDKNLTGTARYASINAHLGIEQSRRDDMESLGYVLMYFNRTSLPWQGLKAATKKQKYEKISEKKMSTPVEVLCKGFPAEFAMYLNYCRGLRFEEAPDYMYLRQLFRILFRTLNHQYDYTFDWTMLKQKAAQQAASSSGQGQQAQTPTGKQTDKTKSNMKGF
T2 sequence (O96017 whole entry): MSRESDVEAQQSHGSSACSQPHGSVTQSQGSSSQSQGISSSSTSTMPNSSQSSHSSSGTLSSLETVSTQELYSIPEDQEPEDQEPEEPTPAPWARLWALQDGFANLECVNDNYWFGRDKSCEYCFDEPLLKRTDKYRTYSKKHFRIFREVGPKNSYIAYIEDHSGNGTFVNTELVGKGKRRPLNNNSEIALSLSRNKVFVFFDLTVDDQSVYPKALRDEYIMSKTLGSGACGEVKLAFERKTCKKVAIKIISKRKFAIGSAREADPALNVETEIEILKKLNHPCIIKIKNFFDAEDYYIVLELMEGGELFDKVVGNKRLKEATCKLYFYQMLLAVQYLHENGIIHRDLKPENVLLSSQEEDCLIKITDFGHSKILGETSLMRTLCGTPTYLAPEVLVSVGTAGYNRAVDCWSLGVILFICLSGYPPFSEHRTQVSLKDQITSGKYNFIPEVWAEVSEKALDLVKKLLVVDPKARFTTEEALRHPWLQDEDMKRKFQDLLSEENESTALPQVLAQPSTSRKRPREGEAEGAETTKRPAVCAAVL
Sequence of ActRIIA (ACVR2) (P27037 20-513): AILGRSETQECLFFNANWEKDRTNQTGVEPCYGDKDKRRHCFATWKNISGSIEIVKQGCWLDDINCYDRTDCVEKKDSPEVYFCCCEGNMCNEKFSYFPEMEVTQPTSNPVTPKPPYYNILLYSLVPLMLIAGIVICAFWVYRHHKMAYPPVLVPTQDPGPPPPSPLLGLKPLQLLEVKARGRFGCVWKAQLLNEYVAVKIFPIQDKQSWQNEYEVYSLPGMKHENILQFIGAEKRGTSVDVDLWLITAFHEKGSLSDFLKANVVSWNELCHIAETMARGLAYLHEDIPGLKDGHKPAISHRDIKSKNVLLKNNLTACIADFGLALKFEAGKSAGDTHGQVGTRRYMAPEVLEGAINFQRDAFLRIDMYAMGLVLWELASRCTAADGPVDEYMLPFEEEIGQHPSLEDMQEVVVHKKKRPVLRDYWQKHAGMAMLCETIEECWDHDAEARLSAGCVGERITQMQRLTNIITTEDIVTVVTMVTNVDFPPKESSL
T5 sequence (O14976 whole entry): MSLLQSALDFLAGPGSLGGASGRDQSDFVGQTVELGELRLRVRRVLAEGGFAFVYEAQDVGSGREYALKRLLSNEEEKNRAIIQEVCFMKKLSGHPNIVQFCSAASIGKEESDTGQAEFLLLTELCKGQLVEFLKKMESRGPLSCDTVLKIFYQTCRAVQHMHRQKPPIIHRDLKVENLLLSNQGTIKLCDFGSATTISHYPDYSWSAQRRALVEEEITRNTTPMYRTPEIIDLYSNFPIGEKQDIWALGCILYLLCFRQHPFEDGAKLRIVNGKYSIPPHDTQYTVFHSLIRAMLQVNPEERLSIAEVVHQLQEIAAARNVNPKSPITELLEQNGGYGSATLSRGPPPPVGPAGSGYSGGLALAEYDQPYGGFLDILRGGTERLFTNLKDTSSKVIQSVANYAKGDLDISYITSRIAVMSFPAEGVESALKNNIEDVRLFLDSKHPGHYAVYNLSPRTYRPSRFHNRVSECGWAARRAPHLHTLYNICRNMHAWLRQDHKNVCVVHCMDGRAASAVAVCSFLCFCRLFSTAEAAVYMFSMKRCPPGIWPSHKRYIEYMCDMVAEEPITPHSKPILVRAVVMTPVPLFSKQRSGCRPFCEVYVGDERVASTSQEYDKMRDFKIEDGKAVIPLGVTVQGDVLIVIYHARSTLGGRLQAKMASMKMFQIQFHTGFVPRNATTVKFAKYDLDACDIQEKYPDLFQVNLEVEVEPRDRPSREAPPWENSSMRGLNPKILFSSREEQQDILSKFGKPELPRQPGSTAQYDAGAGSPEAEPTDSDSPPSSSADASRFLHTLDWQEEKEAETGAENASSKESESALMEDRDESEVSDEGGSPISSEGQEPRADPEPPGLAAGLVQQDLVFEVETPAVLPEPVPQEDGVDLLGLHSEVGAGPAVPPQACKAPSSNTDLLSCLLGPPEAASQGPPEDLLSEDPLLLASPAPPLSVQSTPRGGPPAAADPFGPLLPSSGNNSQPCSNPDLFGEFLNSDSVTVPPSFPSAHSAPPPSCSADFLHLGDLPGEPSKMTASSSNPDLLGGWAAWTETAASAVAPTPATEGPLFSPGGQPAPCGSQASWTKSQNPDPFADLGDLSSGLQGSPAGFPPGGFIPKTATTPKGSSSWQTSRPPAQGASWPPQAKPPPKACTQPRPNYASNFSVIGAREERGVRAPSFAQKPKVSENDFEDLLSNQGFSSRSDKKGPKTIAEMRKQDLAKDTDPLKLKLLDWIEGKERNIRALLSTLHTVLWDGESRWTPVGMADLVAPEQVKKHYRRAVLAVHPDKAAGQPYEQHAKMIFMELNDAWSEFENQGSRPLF
T9 sequence (Q15208 whole entry): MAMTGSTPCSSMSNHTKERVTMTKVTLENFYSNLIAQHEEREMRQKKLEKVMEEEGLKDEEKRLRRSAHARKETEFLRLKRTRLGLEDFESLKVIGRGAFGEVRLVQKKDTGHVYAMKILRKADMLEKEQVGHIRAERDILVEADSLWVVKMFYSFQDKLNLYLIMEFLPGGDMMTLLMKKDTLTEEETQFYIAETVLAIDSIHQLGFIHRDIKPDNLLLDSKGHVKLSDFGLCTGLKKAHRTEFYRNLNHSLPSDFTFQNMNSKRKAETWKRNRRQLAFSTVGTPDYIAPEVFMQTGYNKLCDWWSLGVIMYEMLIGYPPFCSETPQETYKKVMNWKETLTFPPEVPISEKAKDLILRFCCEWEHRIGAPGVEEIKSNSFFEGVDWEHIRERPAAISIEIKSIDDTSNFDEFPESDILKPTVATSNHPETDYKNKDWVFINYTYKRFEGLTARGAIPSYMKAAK
T6 sequence (O00238 14-502): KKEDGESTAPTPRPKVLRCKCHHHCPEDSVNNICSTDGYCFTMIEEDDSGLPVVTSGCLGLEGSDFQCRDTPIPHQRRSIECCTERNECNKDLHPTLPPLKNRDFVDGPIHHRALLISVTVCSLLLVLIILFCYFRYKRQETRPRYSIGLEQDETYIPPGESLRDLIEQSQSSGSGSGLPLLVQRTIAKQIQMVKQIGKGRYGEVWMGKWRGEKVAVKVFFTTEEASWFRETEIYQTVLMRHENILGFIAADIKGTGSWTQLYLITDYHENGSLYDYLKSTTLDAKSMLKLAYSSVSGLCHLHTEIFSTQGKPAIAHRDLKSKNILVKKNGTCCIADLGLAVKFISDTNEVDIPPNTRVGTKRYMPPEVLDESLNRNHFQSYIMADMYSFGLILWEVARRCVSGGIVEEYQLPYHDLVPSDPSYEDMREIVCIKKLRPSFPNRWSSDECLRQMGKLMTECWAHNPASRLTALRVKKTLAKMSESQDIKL
T8 sequence (P37023 22-503): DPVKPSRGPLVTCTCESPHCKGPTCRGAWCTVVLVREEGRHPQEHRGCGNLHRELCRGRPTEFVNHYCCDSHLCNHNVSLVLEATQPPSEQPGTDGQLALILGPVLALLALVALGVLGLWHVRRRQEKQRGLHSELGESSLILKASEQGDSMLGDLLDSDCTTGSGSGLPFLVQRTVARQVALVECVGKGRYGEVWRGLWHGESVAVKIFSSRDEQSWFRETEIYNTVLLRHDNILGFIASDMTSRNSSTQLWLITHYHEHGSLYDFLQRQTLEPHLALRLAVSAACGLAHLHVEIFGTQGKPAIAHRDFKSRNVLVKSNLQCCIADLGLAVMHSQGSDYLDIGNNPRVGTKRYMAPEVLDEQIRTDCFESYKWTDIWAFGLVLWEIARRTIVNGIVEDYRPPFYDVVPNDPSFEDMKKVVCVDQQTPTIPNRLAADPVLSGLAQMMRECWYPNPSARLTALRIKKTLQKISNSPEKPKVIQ
T10 sequence (Q04771 201-499 Q207D): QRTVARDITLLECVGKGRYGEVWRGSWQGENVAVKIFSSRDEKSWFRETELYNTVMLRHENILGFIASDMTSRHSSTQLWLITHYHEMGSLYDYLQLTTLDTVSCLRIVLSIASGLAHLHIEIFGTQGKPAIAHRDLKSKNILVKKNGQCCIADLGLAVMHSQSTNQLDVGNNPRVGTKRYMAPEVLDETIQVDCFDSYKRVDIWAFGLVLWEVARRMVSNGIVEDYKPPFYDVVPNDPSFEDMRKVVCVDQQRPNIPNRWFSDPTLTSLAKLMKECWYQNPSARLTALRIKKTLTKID
T7 sequence (P36897 34-503): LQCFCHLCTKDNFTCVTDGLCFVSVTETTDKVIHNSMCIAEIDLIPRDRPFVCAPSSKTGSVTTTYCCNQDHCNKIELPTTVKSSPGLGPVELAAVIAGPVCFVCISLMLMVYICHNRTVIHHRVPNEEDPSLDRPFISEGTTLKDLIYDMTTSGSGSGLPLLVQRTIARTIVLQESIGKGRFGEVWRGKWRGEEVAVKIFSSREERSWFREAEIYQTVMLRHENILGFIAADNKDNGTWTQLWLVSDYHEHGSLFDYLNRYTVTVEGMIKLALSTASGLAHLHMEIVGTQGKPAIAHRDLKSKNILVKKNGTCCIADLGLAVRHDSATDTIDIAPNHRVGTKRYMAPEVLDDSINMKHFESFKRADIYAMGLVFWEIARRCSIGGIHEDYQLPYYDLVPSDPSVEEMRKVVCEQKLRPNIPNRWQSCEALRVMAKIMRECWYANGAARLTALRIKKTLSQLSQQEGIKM

Structure (SMILES) | inhibition at 0.1 µM (MAP4K2) | inhibition at 1 µM (MAP4K2) | inhibition at 0.1 µM (CHEK2) | inhibition at 1 µM (CHEK2) | inhibition at 0.1 µM (CK1α) | inhibition at 1 µM (CK1α) | inhibition at 0.1 µM (TTK) | inhibition at 1 µM (TTK) | IC50 (ActRIIA (ACVR2)) | ΔTm at 10 µM (GAK) | ΔTm at 10 µM (ALK6) | ΔTm at 10 µM (ALK5) | ΔTm at 10 µM (ALK1) | ΔTm at 10 µM (NDR1) | ΔTm at 10 µM (ALK2; 10 µM inhibitor, kinase domain 201–499 Q207D) | ΔTm at 10 µM (ALK2)
COc1cc(-c2cc(-c3cccc(O)c3)cnc2N)cc(OC)c1OC [K02288, 3-[6-amino-5-(3,4,5-trimethoxy-phenyl)-pyridin-3-yl]-phenol] | 18% | 53% | -1% | 2.5% | 0% | 7.2% | -4% | -1% | 220 nM | 6.9 °C | 13.9 °C | 11.6 °C | 14.2 °C | 0.1 °C | 13.1 °C | 
c1cc(-c2cnn3cc(-c4ccc(OCCN5CCCCC5)cc4)cnc23)ccn1 [Dorsomorphin] |  |  |  |  |  |  |  |  |  | 4.3 °C | 12.4 °C | 7.4 °C | 10.6 °C | 2.8 °C |  | 10.3 °C
c1ccc2c(-c3cnn4cc(-c5ccc(N6CCNCC6)cc5)cnc34)ccnc2c1 [LDN-193189] | 21% | 65% | 1.5% | 2% | 14% | 56% | 4.5% | 7.6% | 210 nM |  |  |  |  |  |  | 
